Measured values as given in ChEMBL document CHEMBL5104233, “Advanced approaches of developing targeted covalent drugs” (RSC Med Chem, 2022).
pIC50: −log10 of the molar value.

Key:
[1] = target: Human immunodeficiency virus type 1 reverse transcriptase (Human immunodeficiency virus 1, UniProt Q72547, Y181C); assay: Inhibition of HIV-1 reverse transcriptase Y181C mutant
[2] = system: CD4+ve Th; assay: Inhibition of Th1 cell differentiation in human peripheral blood CD4+ve Th cells assessed as decrease in IFNgamma production measured after 5 days; assay type: functional, cell-based; settings: 120 h
[3] = target: T1, Cyclin-dependent kinase 2 (Homo sapiens, UniProt P24941); assay: Inhibition of CDK2 (unknown origin)
[4] = target: T1, Cyclin-dependent kinase 2; assay: Inhibition of pan-CDK2 (unknown origin) relative to control; settings: concentration not given here
[5] = target: CDK7/Cyclin H/MNAT1 (Homo sapiens, UniProt P50613); assay: Inhibition of CDK7/Cyclin H/MAT1 (unknown origin) in leukemia cells; assay type: cell-based, Leukemia cell
[6] = system: Jurkat; assay: Antiproliferative activity against human Jurkat cells assessed as inhibition of cell growth incubated for 72 hrs by Celltiter Glo assay; assay type: functional, cell-based

Sequence of CDK7/Cyclin H/MNAT1 (P51946 whole entry): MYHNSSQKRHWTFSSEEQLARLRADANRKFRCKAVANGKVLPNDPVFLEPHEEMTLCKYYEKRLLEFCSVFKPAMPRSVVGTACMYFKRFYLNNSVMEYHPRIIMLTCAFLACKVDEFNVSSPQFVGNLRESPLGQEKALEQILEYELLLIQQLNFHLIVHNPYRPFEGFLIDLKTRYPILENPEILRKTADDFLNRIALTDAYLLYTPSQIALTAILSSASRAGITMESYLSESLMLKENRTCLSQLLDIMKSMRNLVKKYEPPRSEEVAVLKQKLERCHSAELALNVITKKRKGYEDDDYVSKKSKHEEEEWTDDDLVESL
Sequence of CDK7/Cyclin H/MNAT1 (P50613 whole entry): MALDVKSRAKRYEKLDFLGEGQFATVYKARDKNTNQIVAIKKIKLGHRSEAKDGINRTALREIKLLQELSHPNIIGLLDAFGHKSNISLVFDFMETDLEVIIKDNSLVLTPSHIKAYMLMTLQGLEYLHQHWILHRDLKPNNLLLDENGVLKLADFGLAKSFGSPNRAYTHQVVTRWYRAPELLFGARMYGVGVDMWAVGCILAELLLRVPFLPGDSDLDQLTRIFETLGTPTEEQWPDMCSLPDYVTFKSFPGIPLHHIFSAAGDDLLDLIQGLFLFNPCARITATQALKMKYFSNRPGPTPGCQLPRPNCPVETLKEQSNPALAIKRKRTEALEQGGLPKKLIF
Sequence of CDK7/Cyclin H/MNAT1 (P51948 whole entry, further chain): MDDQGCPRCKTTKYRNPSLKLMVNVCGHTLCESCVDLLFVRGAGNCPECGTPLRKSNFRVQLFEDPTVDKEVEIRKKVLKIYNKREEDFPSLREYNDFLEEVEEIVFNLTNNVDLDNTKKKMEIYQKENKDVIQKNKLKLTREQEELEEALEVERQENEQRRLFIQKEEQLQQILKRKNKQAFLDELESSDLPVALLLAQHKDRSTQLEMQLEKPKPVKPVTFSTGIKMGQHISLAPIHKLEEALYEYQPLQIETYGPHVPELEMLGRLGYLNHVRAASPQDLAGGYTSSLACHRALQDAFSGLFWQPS

## Cc1c(Oc2ccccc2OCCn2ccc(=O)[nH]c2=O)cc(N(C)C(=O)CCl)c2ccc(C#N)cc12
[1]
  pIC50: 6.32

## C=CC(=O)N(C)c1cc(Oc2ccccc2OCCn2ccc(=O)[nH]c2=O)c(C)c2cc(C#N)ccc12
[1]
  pIC50: 6.40

## C=CC(=O)N1C[C@H](Nc2ncnc3[nH]ccc23)CC[C@@H]1C [RITLECITINIB]
[2]
  pIC50: 7.32

## C=CS(=O)(=O)c1ccc(Nc2nc(OCC3CCCCC3)c3nc[nH]c3n2)cc1
[3]
  pIC50: 6.80
[4]
  inhibition: 50%

## C=C(F)C(=O)N1CCN(c2nc(OC[C@@H]3CCCN3C)nc3c2CCN(c2cccc4cccc(Cl)c24)C3)C[C@@H]1CC#N [ADAGRASIB]
[5]
  pIC50: 8.89

## CN(C)C/C=C/C(=O)Nc1ccc(C(=O)N2CCC[C@H](Nc3ncc(Cl)c(-c4c[nH]c5ccccc45)n3)C2)cc1
[6]
  pIC50: 7.30
